These results are taken from ChEMBL document CHEMBL3046714, “Synthesis and Precocious Metamorphosis-Inducing Activity of 3-(1-Alkenyl) pyridines” (J Pestic Sci, 2000).

The test system of data set [1] is Bombyx mori. The experiment in a line: Precocious metamorphosis-inducing activity in Bombyx mori Shunrei x Shougetsu fourth-instar larvae assessed as change in body weight compound applied topically measured every 12 hr during fourth-instar period. The data set is classed as functional.
Data set [2] deals with Bombyx mori. The experiment in a line: Precocious metamorphosis-inducing activity in Bombyx mori Shunrei x Shougetsu fourth-instar larvae assessed as change in body weight at >160 ug applied topically measured every 12 hr during fourth-instar period. The data set is classed as functional.
The subject of data set [3] is Bombyx mori. The experiment in a line: Precocious metamorphosis-inducing activity in Bombyx mori Shunrei x Shougetsu fourth-instar larvae assessed as change in body weight at >80 ug applied topically measured every 12 hr during fourth-instar period. The data set is classed as functional.
Data set [4] is described as follows: Toxicity in Bombyx mori Shunrei x Shougetsu fourth-instar larvae assessed as mortality at 160 ug applied topically. In kind it is organism-based. The note with it: in vivo, topical or ocular.

For `CC(C)CC=C(c1ccccc1)c1cccnc1`, the ED50 with Bombyx mori [1] is 34 µg. The same measure, in the same setting: next, `CC(C)C=C(c1ccccc1)c1cccnc1`: 27 µg; `CCCC=C(c1ccccc1)c1cccnc1`: 50 µg. `CCOC(=O)C=C(c1ccccc1)c1cccnc1`: in the data set on Bombyx mori [1], the ED50 turned out to be 89 µg.

Regarding `CCCCC=C(c1ccccc1)c1cccnc1`, the ED50 with Bombyx mori [1] was 102 µg. As to `CC=Cc1cccnc1`, the ED50 with Bombyx mori [1] was greater than 160 µg. Further, in the data set with Bombyx mori [2], the Activity was found to be 0%. On the same counts, the results for `C(=C\c1cccnc1)/c1ccccc1` are greater than 160 µg and 9%.

Regarding `CCC(c1ccccc1)c1cccnc1` (racemic), in the data set on Bombyx mori [1], the ED50 turned out to be 42 µg.

Regarding `CCOC(=O)/C=C(/C)c1cccnc1`, in the data set on Bombyx mori [1], the ED50 is greater than 160 µg. In the data set with Bombyx mori [2], the Activity is 0%. One may read the mortality as the share of the test organisms that died. Take `C(=C/c1cccnc1)/c1ccccc1`: the ED50 in the data set on Bombyx mori [1] was greater than 80 µg. The Activity with Bombyx mori [3] was 7%. Besides, the mortality in data set [4] stood at 100%.

For `CC=C(C)c1cccnc1`, the ED50 in the data set with Bombyx mori [1] was greater than 160 µg. The Activity in the data set on Bombyx mori [2] turned out to be 20%. In the case of `CCCCCC=C(c1ccccc1)c1cccnc1`, the ED50 in the data set with Bombyx mori [1] is greater than 160 µg. Besides, the Activity in the data set on Bombyx mori [2] stood at 35%. For the compound `CC=C(c1ccccc1)c1cccnc1`, the ED50 in the data set on Bombyx mori [1] was 26 µg. On the same count and under the same terms, next, `C=C(c1ccccc1)c1cccnc1`: 56 µg; `C(=C(c1ccccc1)c1cccnc1)c1ccccc1`: 144 µg; `CC(=Cc1ccccc1)c1cccnc1`: 42 µg. With `CCOC(=O)/C=C/c1cccnc1`, the ED50 in the data set on Bombyx mori [1] was greater than 160 µg. The Activity in the data set on Bombyx mori [2] is 0%. `CCC=C(c1ccccc1)c1cccnc1`: in the data set with Bombyx mori [1], the ED50 was found to be 29 µg. As for `CCOC(=O)/C=C(\C)c1cccnc1`, the ED50 in the data set on Bombyx mori [1] was greater than 160 µg. In addition, the Activity with Bombyx mori [2] is recorded as 5%.
